The nature of the data set: Solubility of the lysine salt in solvents for NMR analysis. The format is physicochemical. An excerpt:
Use of TFA as solvent cleaves the sulfate group at the C3 position. ^1H-NMR analysis (CF3COOD) indicated a 1/1 ratio of lysine to cholesterol, as well as ~0.2 eq. triethylamine and some iPrOH.

Structures can show the parent of a compound that is named as a salt.

Regarding `C[C@H](CCCC(C)(C)O)[C@H]1CC[C@H]2[C@@H]3CC=C4C[C@@H](OS(=O)(=O)O)CC[C@]4(C)[C@H]3CC[C@]12C` [Salt #14], the “Solubility in other solvents (in words)” value (any other common organic solvents or acidic or basic aqueous solutions) is on record as “No solubility was detected”. Besides, the “Solubility in trifluoroacetic acid (in words)” value (trifluoroacetic acid) is “only adequately soluble in trifluoroacetic acid”.
